Assay results from patent US20140135310A1, “SULPHONAMIDE DERIVATIVES OF ALICYCLIC AMINES FOR THE TREATMENT OF CENTRAL NERVOUS SYSTEM DISEASES” (Adamed Sp. z o.o., priority 2011, published 2014).

Key:
[1] = target: T1, H1 histaminergic receptors (Homo sapiens, UniProt P35367); experiment: Radioligand binding assay, histaminergic H1 receptors; conditions: human recombinant (HEK-293 cells), [3H]pyrilamine 1 nM
T1 construct: expressed in transfected cells; host or cells: HEK-293 cells
How it was run: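 Competition binding at human H1 receptors; specific binding taken as total minus non-specific binding in excess unlabelled ligand, scintillation read-out. IC50 from Hill-equation fit of competition curves; Ki by Cheng-Prusoff using radioligand concentration and Kd (from Scatchard plot).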

[2] = target: dopaminergic receptors D3 (Homo sapiens, UniProt P35462); experiment: Radioligand binding assay, dopaminergic D3 receptors; conditions: test compound 1×10^−6 M
How it was run: (§1)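 Scintillation read-out. Specific = total − nonspecific (excess cold ligand). Data as % of control specific binding / % inhibition; IC50 by Hill fit; Ki = IC50/(1+L/KD), KD from Scatchard plot.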

5-HT2A receptor = target: T2, 5-HT2A receptor (Homo sapiens, UniProt P28223); experiment: Radioligand binding assay, serotoninergic 5-HT2A receptors; conditions: for inhibition at 1 µM: binding assay result in %, Table 5a; for Ki: read-out: Inhibition constants Ki, 5-HT2A
T2 construct: purchased PerkinElmer
How it was run: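 Competition curves from scintillation-counted specific binding (total minus binding with excess unlabelled ligand) were Hill-fitted to give IC50, converted to Ki via Cheng-Prusoff using Scatchard-derived Kd.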

α2C adrenergic receptors = target: T3, α2C adrenergic receptors (Homo sapiens, UniProt P18825); experiment: Radioligand binding assay, adrenergic α2C receptors; conditions: test compound 1×10^−6 M
T3 construct: expressed in transfected cells; host or cells: CHO cells
T3 sequence (P18825 1-462): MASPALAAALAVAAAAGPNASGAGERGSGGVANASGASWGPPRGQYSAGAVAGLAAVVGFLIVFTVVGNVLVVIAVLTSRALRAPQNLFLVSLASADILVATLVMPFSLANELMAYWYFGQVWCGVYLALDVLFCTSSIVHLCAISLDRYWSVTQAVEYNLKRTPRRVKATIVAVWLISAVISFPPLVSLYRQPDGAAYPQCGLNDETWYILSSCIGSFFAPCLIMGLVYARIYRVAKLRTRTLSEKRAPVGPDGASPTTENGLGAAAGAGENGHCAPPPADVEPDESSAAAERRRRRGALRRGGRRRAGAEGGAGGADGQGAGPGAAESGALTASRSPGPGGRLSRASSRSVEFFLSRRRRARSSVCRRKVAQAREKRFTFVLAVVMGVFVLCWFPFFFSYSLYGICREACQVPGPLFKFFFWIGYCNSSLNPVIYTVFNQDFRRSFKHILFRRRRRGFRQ
How it was run: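 Competitive radioligand binding at human α2C receptors, with scintillation counting. Nonspecific binding defined with excess unlabelled ligand; results given as % inhibition of control specific binding. IC50 from Hill-equation fits of competition curves; Ki via Cheng-Prusoff using radioligand concentration and Scatchard-derived KD.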

5-HT2C receptor = target: T4, 5-HT2C receptor (Homo sapiens, UniProt P28335); experiment: Radioligand binding assay, serotoninergic 5-HT2C receptors; conditions: test compound 1×10^−6 M
T4 construct: expressed in transfected cells; host or cells: HEK-293 cells
T4 sequence (P28335 33-458): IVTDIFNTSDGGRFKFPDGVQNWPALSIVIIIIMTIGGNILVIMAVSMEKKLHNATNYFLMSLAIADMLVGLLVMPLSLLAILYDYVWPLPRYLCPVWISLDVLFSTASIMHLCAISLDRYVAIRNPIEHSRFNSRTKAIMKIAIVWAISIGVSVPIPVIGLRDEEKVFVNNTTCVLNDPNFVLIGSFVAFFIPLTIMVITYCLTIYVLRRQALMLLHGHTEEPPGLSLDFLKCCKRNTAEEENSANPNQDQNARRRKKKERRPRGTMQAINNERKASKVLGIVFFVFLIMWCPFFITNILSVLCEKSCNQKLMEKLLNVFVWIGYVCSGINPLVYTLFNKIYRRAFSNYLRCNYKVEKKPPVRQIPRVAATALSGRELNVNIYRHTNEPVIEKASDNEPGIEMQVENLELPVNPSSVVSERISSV

receptors D4.4 = target: T5, receptors D4.4 (Homo sapiens, UniProt P21917); experiment: Radioligand binding assay, dopaminergic D4 (D4.4) receptors; conditions: test compound 1×10^−6 M
T5 sequence (P21917 1-419): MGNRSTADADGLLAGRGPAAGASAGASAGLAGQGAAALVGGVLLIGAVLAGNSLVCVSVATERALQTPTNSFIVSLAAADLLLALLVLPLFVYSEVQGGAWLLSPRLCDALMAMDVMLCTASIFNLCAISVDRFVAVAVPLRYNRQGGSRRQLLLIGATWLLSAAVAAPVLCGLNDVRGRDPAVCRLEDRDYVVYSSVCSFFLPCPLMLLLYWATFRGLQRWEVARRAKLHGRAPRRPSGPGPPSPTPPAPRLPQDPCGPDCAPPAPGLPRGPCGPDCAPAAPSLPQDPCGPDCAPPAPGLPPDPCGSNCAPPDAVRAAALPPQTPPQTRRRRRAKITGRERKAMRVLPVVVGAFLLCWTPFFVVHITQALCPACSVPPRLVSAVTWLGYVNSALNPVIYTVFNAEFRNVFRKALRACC
How it was run: as §1

[3] = target: dopaminergic receptors D2 (Homo sapiens, UniProt P14416); experiment: Radioligand binding assay, dopaminergic D2 receptors; conditions: for inhibition at 1 µM: binding assay, test compound 1×10^−6 M; for Ki: read-out: Inhibition constants Ki for D2 receptors, D2
How it was run: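 Ki from Cheng–Prusoff conversion of Hill-fitted IC50 values, using the assay radioligand concentration and a Scatchard-determined KD. Specific binding, scintillation-counted, excluded signal remaining under excess unlabelled ligand.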

5-HT6 receptor = target: T6, 5-HT6 receptor (Homo sapiens, UniProt P50406); experiment: Radioligand binding assay, serotoninergic 5-HT6 receptors; conditions: for inhibition at 1 µM: binding assay result in %, Table 5a; for Ki: read-out: Inhibition constants Ki, 5-HT6
T6 construct: purchased PerkinElmer
How it was run: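 Values are Ki from Cheng–Prusoff, taking IC50 from Hill nonlinear regression of competition curves and KD from a Scatchard plot. Specific binding was total minus binding with excess unlabelled ligand. Radioligand displacement was detected by scintillation counting, and data were also reported as percent of control specific binding.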

T1 sequence (P35367 whole entry): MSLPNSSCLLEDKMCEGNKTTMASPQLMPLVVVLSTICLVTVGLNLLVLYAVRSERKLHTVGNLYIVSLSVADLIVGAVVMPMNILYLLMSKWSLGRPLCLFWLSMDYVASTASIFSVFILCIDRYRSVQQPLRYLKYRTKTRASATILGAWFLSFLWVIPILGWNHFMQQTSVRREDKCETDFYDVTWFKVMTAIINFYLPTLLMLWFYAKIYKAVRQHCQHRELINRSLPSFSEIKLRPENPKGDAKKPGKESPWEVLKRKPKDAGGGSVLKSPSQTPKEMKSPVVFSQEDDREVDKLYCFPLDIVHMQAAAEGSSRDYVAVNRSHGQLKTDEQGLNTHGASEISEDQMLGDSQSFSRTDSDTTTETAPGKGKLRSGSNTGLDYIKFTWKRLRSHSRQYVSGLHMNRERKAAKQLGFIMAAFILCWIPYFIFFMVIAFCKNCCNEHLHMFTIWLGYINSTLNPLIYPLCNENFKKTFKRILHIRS
T2 sequence (P28223 whole entry): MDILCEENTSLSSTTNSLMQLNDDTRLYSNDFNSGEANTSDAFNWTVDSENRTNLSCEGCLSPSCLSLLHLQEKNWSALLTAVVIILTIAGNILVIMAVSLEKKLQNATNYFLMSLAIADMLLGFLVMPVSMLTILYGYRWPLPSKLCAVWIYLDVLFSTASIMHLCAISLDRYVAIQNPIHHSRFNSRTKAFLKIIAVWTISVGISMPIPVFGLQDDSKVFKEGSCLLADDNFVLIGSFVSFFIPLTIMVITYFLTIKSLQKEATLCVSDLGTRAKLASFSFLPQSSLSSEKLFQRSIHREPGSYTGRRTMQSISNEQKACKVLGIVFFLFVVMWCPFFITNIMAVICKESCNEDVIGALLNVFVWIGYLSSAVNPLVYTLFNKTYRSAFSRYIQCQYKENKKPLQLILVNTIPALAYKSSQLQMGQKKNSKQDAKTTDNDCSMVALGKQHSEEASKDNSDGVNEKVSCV
dopaminergic receptors D3, sequence (P35462 whole entry): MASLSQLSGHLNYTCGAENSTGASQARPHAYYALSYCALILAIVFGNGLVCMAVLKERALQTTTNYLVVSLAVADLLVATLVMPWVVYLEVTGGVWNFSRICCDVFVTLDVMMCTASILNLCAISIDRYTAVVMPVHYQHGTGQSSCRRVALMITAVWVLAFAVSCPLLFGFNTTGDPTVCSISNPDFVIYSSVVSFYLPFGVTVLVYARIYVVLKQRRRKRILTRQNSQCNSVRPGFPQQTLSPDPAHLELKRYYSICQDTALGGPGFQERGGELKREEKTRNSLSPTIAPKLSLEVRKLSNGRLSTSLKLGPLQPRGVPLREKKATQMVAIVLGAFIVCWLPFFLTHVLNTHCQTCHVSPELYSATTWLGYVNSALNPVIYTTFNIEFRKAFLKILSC
T6 sequence (P50406 whole entry): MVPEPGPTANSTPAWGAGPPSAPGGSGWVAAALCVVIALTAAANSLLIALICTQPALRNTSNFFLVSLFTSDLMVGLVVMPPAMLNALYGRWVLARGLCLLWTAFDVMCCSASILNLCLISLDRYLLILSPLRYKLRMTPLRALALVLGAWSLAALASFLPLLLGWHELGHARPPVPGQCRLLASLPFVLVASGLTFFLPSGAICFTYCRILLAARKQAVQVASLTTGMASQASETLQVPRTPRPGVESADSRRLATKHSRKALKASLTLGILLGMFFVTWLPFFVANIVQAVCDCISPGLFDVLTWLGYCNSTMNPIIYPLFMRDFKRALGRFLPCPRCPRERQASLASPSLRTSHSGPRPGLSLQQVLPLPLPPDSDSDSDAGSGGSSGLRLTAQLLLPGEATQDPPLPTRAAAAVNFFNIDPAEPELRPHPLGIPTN
dopaminergic receptors D2, sequence (P14416 whole entry): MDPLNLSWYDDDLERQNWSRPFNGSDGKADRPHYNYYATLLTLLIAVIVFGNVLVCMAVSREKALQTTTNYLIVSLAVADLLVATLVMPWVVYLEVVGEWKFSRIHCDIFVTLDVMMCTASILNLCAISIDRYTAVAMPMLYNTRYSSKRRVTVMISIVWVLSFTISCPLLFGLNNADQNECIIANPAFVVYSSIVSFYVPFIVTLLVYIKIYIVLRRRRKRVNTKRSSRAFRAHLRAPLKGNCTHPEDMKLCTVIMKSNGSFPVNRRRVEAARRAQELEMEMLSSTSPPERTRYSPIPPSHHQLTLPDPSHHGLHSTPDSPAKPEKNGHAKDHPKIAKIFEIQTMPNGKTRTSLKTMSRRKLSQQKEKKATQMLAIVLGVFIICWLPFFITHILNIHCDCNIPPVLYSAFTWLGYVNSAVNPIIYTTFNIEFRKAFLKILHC

Structure (SMILES)	inhibition at 1 µM [1]	inhibition at 1 µM [2]	inhibition at 1 µM (5-HT2A receptor)	Ki (5-HT2A receptor)	inhibition at 1 µM (α2C adrenergic receptors)	inhibition at 1 µM (5-HT2C receptor)	inhibition at 1 µM (receptors D4.4)	inhibition at 1 µM [3]	Ki [3]	inhibition at 1 µM (5-HT6 receptor)	Ki (5-HT6 receptor)
O=S(=O)(N[C@H]1CCN(CCCc2noc3cc(F)ccc23)C1)c1ccc2cc(Cl)ccc2c1 [Compound 201, 6-Chloro-N-[(3S)-1-[3-(6-fluoro-1,2-benzoxazol-3-yl)propyl]pyrrolidin-3-yl]naphthalene-2-sulphonamide]	64%	84%	98%	7 nM	89%	72%	50%	99%	15 nM	94%	79 nM
O=S(=O)(N[C@@H]1CCN(CCCc2noc3cc(F)ccc23)C1)c1cc2ccccc2s1 [Compound 196, N-[(3R)-1-[3-(6-Fluoro-1,2-benzoxazol-3-yl)propyl]pyrrolidin-3-yl]benzo-thiophene-2-sulphonamide]	84%	94%	100%	0.4 nM	89%	86%	78%	100%	0.8 nM	99%	6.4 nM
O=S(=O)(NCC1CCN(CCOc2cccc3c2OCCO3)C1)c1ccc(F)cc1 (stereo not shown) [Compound 300, N-[[1-[2-(2,3-Dihydro-1,4-benzodioxin-5-yloxy)ethyl]pyrrolidin-3-yl]-methyl]-4-fluoro-benzenesulphonamide]	28%	30%	72%	–	92%	34%	52%	35%	–	38%	–
Cc1c(S(=O)(=O)N[C@H]2CCN(CCCc3noc4cc(F)ccc34)C2)sc2ccc(F)cc12 [Compound 203, 5-Fluoro-N-[(3S)-1-[3-(6-fluoro-1,2-benzoxazol-3-yl)propyl]pyrrolidin-3-yl]-3-methyl-benzothiophene-2-sulphonamide]	67%	95%	99%	0.7 nM	93%	90%	78%	101%	0.9 nM	100%	12 nM
O=S(=O)(NCC1CCN(CCOc2cccc3c2OCCO3)C1)c1cccc(O)c1 (stereo not shown) [Compound 303, N-[[1-[2-(2,3-Dihydro-1,4-benzodioxin-5-yloxy)ethyl]pyrrolidin-3-yl]-methyl]-3-hydroxy-benzenesulphonamide]	68%	52%	96%	–	100%	47%	39%	79%	–	48%	–
Cc1cccc(S(=O)(=O)NC2CCN(CCCc3c[nH]c4ccc(F)cc34)C2)c1 (stereo not shown) [Compound 78, N-[1-[3-(5-Fluoro-1H-indol-3-yl)propyl]pyrrolidin-3-yl]-3-methyl-benzenesulphonamide]	65%	98%	95%	–	85%	78%	79%	89%	–	94%	42 nM
